According to patent US9433621B2, “Substituted pyridine and pyrimidine derivatives and their use in treating viral infections” (Merck Sharp & Dohme Corp., priority 2010, dated 2016):

System: HCV replicon
Assay: Cell-Based HCV Replicon Assay
Settings: HCV Replicon assay, EC90 range, Table VI; read-out: EC90
Procedure, shortened: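 Replicon cells, 5000/well, treated 3 days with 10 serial 2-fold dilutions (top 25 μM to 1 μM) in 0.5% DMSO, 10% FBS. Replicon RNA measured by multiplex Taqman RT-PCR (NS5B amplicon, GAPDH control); EC50/EC90 = concentration giving ΔCT of 1/3.2 over baseline from sigmoid fit.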

SMILES	EC90 [µM]
Cc1nc(NC(C)C2CC(F)(F)C2)nc(N[C@@H]2C[C@H](CO)[C@@H](O)[C@H]2O)c1-c1nc2c(C)nccc2s1 (some centres unmarked) [Example 5308]	< 0.5

Same assay, conditions: Hepatitis C virus, 72 h; Table IV; replicon cells, day 3, real time PCR; EC90 = concentration for ΔCT=3.2 over baseline; read-out: EC90

SMILES	EC90 [µM]
Cc1nc(NC2CCC2)nc(N[C@@H]2C[C@H](CS(C)(=O)=O)[C@@H](O)[C@H]2O)c1-c1nc2c(C3CC3)nccc2s1 [Example 3513]	0.054
Cc1nc(NC[C@H]2C[C@@H](c3ccccc3)C2)nc(N[C@@H]2C[C@H](CO)[C@@H](O)[C@H]2O)c1-c1nc2cnccc2s1 [Example 4512]	0.019

Same assay, conditions: Hepatitis C virus, 72 h; Table V, class codes; replicon cells, day 3, real time PCR; EC90 = concentration for ΔCT=3.2 over baseline; read-out: EC90 (uM) range

SMILES	EC90 [µM]
COC[C@@H](C)Nc1ncc(-c2nc3c(C)nccc3s2)c(N[C@@H]2C[C@H](C(C)(C)O)[C@@H](O)[C@H]2O)n1 [Example 4941]	< 0.5
COCCNc1ncc(-c2nc3c(C)nccc3s2)c(N[C@@H]2C[C@H](C(C)(C)O)[C@@H](O)[C@H]2O)n1 [Example 4938]	< 0.5
COCCNc1nc(C)c(-c2nc3cnc(C4CC4)cc3s2)c(N[C@@H]2C[C@H](CO)[C@@H](O)[C@H]2O)n1 [Example 4943]	< 0.5
Cc1ccc([C@@H](C)Nc2nc(C)c(-c3nc4cnc(C)cc4s3)c(N[C@@H]3C[C@H](CO)[C@@H](O)[C@H]3O)n2)cc1 [Example 4913]	< 0.5
Cc1nc(N)nc(N[C@@H]2C[C@H](C(=O)Nc3ccccc3)[C@@H](O)[C@H]2O)c1-c1nc2c(C3CC3)nccc2s1 [Example 4948]	< 0.5
Cc1cc2sc(-c3c(C)nc(NCC4CC4)nc3N[C@@H]3C[C@H](CO)[C@@H](O)[C@H]3O)nc2cn1 [Example 4909]	< 0.5
Cc1nc(NCC2CC2)nc(N[C@@H]2C[C@H](CO)[C@@H](O)[C@H]2O)c1-c1nc2cnc(C3CC3)cc2s1 [Example 4942]	< 0.5

Same assay, conditions: Hepatitis C virus; HCV Replicon assay, EC90 given as numeric bound, Table VI; read-out: EC90

SMILES	EC90 [µM]
COCC1(Nc2nc(C)c(-c3nc4c(C)nccc4s3)c(N[C@@H]3C[C@H](C(C)(C)O)[C@@H](O)[C@H]3O)n2)CCCCC1 [Example 5198]	> 1
CO[C@H](C)CN(C)c1nc(C)c(-c2nc3c(C)nccc3s2)c(N[C@@H]2C[C@H](C(C)(C)O)[C@@H](O)[C@H]2O)n1 [Example 5171]	> 1
COCCNc1nc(C)c(-c2nc3c(C)nccc3s2)c(N2C[C@H]3C[C@@H]2[C@H](O)[C@@H]3O)n1 [Example 5214]	> 1

Same assay, conditions: Hepatitis C virus; HCV Replicon assay, EC90 range, Table VI; read-out: EC90

SMILES	EC90 [µM]
Cc1ccc(S(=O)(=O)C[C@H]2C[C@@H](Nc3nc(NCCSC(C)(C)C)nc(C)c3-c3nc4c(C)nccc4s3)[C@H](O)[C@@H]2O)cc1F [Example 5001]	< 0.5
CCS(=O)(=O)C(C)(C)[C@H]1C[C@@H](Nc2nc(NC3CCC3)nc(C)c2-c2nc3c(C4CC4)nccc3s2)[C@H](O)[C@@H]1O [Example 5060]	< 0.5
CO[C@H](C)CNc1nc(C)c(-c2nc3c(C)nccc3s2)c(N[C@@H]2C[C@H](COc3c(F)ccc(F)c3F)[C@@H](O)[C@H]2O)n1 [Example 5033]	< 0.5
Cc1cc(S(=O)(=O)C[C@H]2C[C@@H](Nc3nc(NCCSC(C)(C)C)nc(C)c3-c3nc4c(C)nccc4s3)[C@H](O)[C@@H]2O)ccc1F [Example 5006]	< 0.5
Cc1nc(NCC(F)(F)C(F)(F)C(F)(F)F)nc(N[C@H]2C=C[C@@H](CO)C2)c1-c1nc2c(C)nccc2s1 [Example 5164]	< 0.5
COCC1(Nc2nc(NCC3CC3)nc(C)c2-c2nc3c(C)nccc3s2)CCCCC1 [Example 5201]	< 0.5
COCCNc1nc(C)c(-c2nc3c(C4CC4)nccc3s2)c(N[C@@H]2C[C@H](C(C)(C)S(C)(=O)=O)[C@@H](O)[C@H]2O)n1 [Example 5075]	< 0.5
Cc1nc(NCc2c(F)cccc2F)nc(N[C@@H]2C[C@H](NC(=O)NC(C)C)[C@@H](O)[C@H]2O)c1-c1nc2c(C3CC3)nccc2s1 [Example 5083]	< 0.5
Cc1nc(NC2(C3CC3)CC2)nc(N[C@@H]2C[C@H]([C@@H](O)C(C)C)[C@@H](O)[C@H]2O)c1-c1nc2c(C)nccc2s1 [Example 5122]	< 0.5
Cc1nc(N)nc(N[C@@H]2C[C@H](C(C)(C)S(=O)(=O)c3ccccc3)[C@@H](O)[C@H]2O)c1-c1nc2c(C)nccc2s1 [Example 5076]	< 0.5
CO[C@H](C)CNc1nc(C)c(-c2nc3c(C)nccc3s2)c(N[C@@H]2C[C@H](C3(O)CC3)[C@@H](O)[C@H]2O)n1 [Example 5238]	< 0.5
CO[C@@H]1CCC[C@@H]1Nc1nc(C)c(-c2nc3c(C)nccc3s2)c(N[C@@H]2C[C@H](CO)[C@@H](O)[C@H]2O)n1 [Example 5143]	< 0.5
COCCNc1nc(C)c(-c2nc3c(C)nccc3s2)c(N[C@@H]2C[C@H]([C@@H](O)C(C)C)[C@@H](O)[C@H]2O)n1 [Example 5123]	< 0.5
Cc1nc(NCC(F)(F)C(F)(F)F)nc(NC2(CO)CCCC2)c1-c1nc2c(C3CC3)nccc2s1 [Example 5129]	< 0.5
Cc1nc(NCC2CC2)nc(NC2(CO)CCCC2)c1-c1nc2c(C)nccc2s1 [Example 5132]	< 0.5
Cc1nc(NCC2(O)CC2)nc(N[C@H]2C=C[C@@H](CO)C2)c1-c1nc2c(C)nccc2s1 [Example 5170]	< 0.5
Cc1nc(N)nc(N[C@@H]2C[C@H](C(C)(C)S(=O)(=O)c3ccccc3)[C@@H](O)[C@H]2O)c1-c1nc2c(N)nccc2s1 [Example 5081]	< 0.5
Cc1nc(N[C@H](C)c2c(F)c(F)c(C)c(F)c2F)nc(N[C@@H]2C[C@H](C(C)(C)O)[C@@H](O)[C@H]2O)c1-c1nc2c(N)nccc2s1 [Example 5028]	< 0.5
COc1ccc(S(=O)(=O)C[C@H]2C[C@@H](Nc3nc(NC4CC4)nc(C)c3-c3nc4c(C)nccc4s3)[C@H](O)[C@@H]2O)cc1F [Example 5005]	< 0.5
Cc1nc(NCC2(O)CCCC2)nc(N[C@H]2CC[C@@H](CO)C2)c1-c1nc2c(C)nccc2s1 [Example 5159]	< 0.5
CCc1nccc2sc(-c3c(C)nc(NCC(F)(F)F)nc3N[C@@H]3C[C@H](CS(=O)(=O)c4ccc(F)c(C)c4)[C@@H](O)[C@H]3O)nc12 [Example 5019]	< 0.5
CCC(O)(CC)[C@H]1C[C@@H](Nc2nc(NC3CCOCC3)nc(C)c2-c2nc3c(C)nccc3s2)[C@H](O)[C@@H]1O [Example 5271]	< 0.5

SMILES	EC90 [µM]
COCC(O)(COC)[C@H]1C[C@@H](Nc2nc(NC[C@@H](C)OC)nc(C)c2-c2nc3c(C)nccc3s2)[C@H](O)[C@@H]1O [Example 5245]	< 0.5
CCNC(=O)N[C@H]1C[C@@H](Nc2nc(NCC3CC3)nc(C)c2-c2nc3c(C4CC4)nccc3s2)[C@H](O)[C@@H]1O [Example 5087]	< 0.5
Cc1nc(N[C@H](C)c2c(F)c(F)c(C)c(F)c2F)nc(N[C@@H]2C[C@H](C(C)(C)O)[C@@H](O)[C@H]2O)c1-c1nc2c(C)nccc2s1 [Example 5204]	< 0.5
COC[C@@H](C)Nc1nc(C)c(-c2nc3c(C)nccc3s2)c(N[C@@H]2C[C@H](C(C)(C)OC)[C@@H](O)[C@H]2O)n1 [Example 5274]	< 0.5
Cc1nc(NCC2CC2)nc(N[C@H]2C=C[C@@H](CO)C2)c1-c1nc2c(C)nccc2s1 [Example 5157]	< 0.5
Cc1nc(NCc2c(F)cccc2F)nc(N[C@@H]2C[C@H](NC(=O)OCc3nccs3)[C@@H](O)[C@H]2O)c1-c1nc2c(C3CC3)nccc2s1 [Example 5084]	< 0.5
Cc1nc(NCC2CC2)nc(N[C@@H]2C[C@H](C(C)(C)S(=O)(=O)c3ccccc3)[C@@H](O)[C@H]2O)c1-c1nc2c(C)nccc2s1 [Example 5066]	< 0.5
COC[C@@H](C)Nc1nc(C)c(-c2nc3c(C)nccc3s2)c(N[C@@H]2C[C@H](C3(O)CCCC3)[C@@H](O)[C@H]2O)n1 [Example 5104]	< 0.5
COCCCNc1nc(C)c(-c2nc3c(C)nccc3s2)c(N[C@@H]2C[C@H](C(C)(C)O)[C@@H](O)[C@H]2O)n1 [Example 5161]	< 0.5
CCS(=O)(=O)C(C)(C)[C@H]1C[C@@H](Nc2nc(NC3CCC3)nc(C)c2-c2nc3c(C)nccc3s2)[C@H](O)[C@@H]1O [Example 5058]	< 0.5
COc1ccc(S(=O)(=O)C[C@H]2C[C@@H](Nc3nc(NCCSC(C)(C)C)nc(C)c3-c3nc4c(C)nccc4s3)[C@H](O)[C@@H]2O)cc1F [Example 5014]	< 0.5
Cc1nc(NCCSC(C)(C)C)nc(N[C@@H]2C[C@H](C3(O)CC3)[C@@H](O)[C@H]2O)c1-c1nc2c(C)nccc2s1 [Example 5237]	< 0.5
Cc1nc(NCCO)nc(NC2(C)CCC2)c1-c1nc2c(C)nccc2s1 [Example 5219]	< 0.5
Cc1nc(N)nc(N[C@@H]2C[C@H](CC(C)(C)O)[C@@H](O)[C@H]2O)c1-c1nc2c(C)nccc2s1 [Example 5304]	< 0.5
CO[C@@H]1CCCC[C@H]1Nc1nc(C)c(-c2nc3c(C)nccc3s2)c(N[C@@H]2C[C@H](C(C)(C)O)[C@@H](O)[C@H]2O)n1 [Example 5140]	< 0.5
CO[C@@]1(CNc2nc(C)c(-c3nc4c(C)nccc4s3)c(N[C@@H]3C[C@H](C4(O)CCCC4)[C@@H](O)[C@H]3O)n2)CCOC1 [Example 5103]	< 0.5
CCc1nccc2sc(-c3c(C)nc(NC4CC4)nc3N[C@@H]3C[C@H](CS(=O)(=O)c4ccc(F)c(C)c4)[C@@H](O)[C@H]3O)nc12 [Example 5016]	< 0.5
COC1(CNc2nc(C)c(-c3nc4c(C)nccc4s3)c(N[C@@H]3C[C@H](C(C)(C)O)[C@@H](O)[C@H]3O)n2)CC1 [Example 5257]	< 0.5
COCCNc1nc(C)c(-c2nc3c(C)nccc3s2)c(N[C@@H]2C[C@H](C(C)(C)S(C)(=O)=O)[C@@H](O)[C@H]2O)n1 [Example 5071]	< 0.5
COC(=O)NC(C)(C)[C@H]1C[C@@H](Nc2nc(NC[C@@H](C)OC)nc(C)c2-c2nc3c(C)nccc3s2)[C@H](O)[C@@H]1O [Example 5041]	< 0.5
Cc1nc(NCC2(O)CCCC2)nc(NC2(CO)CCCC2)c1-c1nc2c(C)nccc2s1 [Example 5133]	< 0.5
